Experiment [1] concerns the target T1, PRMT5 (Homo sapiens, UniProt O14744).
T1 construct: purchased Viva (custom protein)
Nature of the experiment: PRMT5 biochemical IC50 assay with SAM as cofactor. The settings on record: PRMT5, SAM as cofactor; read-out: SAM IC50.

For experiment [2], the target named is T1, PRMT5. Kind of experiment: PRMT5 biochemical IC50 assay with no cofactor. The note with it: PRMT5, no cofactor. The source says: Table 1 indicates IC50 values (μM) against PRMT5 for exemplary compounds in the presence of SAM as cofactor, with no cofactor, and with MTA as cofactor, respectively (columns 4-6). […] Ki values can be calculated from the IC50 values as described in the Examples section. As detailed in the Examples section, for the assay performed in the presence of SAM, IC50=Ki×1.5 (Ki=IC50/1.5).

The target of experiment [3] is T1, PRMT5. Nature of the experiment: PRMT5 biochemical IC50 assay with MTA as cofactor. The settings on record: PRMT5, MTA as cofactor; read-out: MTA IC50.
Experiment [4] has as its system HAP1 MTAP-intact cell line. Nature of the experiment: SDMA in-cell western assay, HAP1 MTAP-intact. Type of experiment: cell-based. The settings on record: Homo sapiens, HAP1, SDMA in-cell western, HAP1 MTAP-intact; read-out: MTAP HAP1 intact IC50. In short, it runs like this: (§1)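 Compounds were tested in HAP1 cells differing only in MTAP status (endogenous expression versus null). Cellular SDMA levels were then measured by in-cell western, giving an IC50 in each background.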

Experiment [5] concerns HAP1 MTAP-deleted cell line. Nature of the experiment: SDMA in-cell western assay, HAP1 MTAP-deleted. Type of experiment: cell-based. The settings on record: for IC50: Homo sapiens, HAP1, SDMA in-cell western, HAP1 MTAP-deleted; for MTAP intact/deleted ratio: SDMA in-cell western. In short, it runs like this: as §1
The test system of experiment [6] is HAP1 MTAP-deleted cell line. Nature of the experiment: Viability assay, MTAP-deleted cell line. Type of experiment: cell-based. The note with it: Homo sapiens, read-out: HAP1 MTAP deleted viability. The source says:
Table 1 additionally indicates IC50 values in a viability assay for the MTAP-deleted cell line (column 10), indicating the effect of treatment with compound on cell survival.

Setting [7] is: read-out: HAP1 MTAP deleted IC50.
Where [8] appears, read: IC50 ratio HAP1 MTAP-intact / HAP1 MTAP-deleted.
Setting [9] is: HAP1, viability assay, HAP1 MTAP-deleted.
Where [10] appears, read: IC50 ratio HAP1 MTAP-intact vs HAP1 MTAP-deleted.
Where [11] appears, read: HAP1, viability assay, MTAP-deleted cell line.
Setting [12] is: read-out: No Cofactor/ rel IC50.
The mark [13] stands for this setting: read-out: HAP 1 MTAP deleted IC50.

The record followed here is patent US11999727B2 (Tango Therapeutics, Inc., priority 2020, dated 2024).

T1 sequence (O14744 whole entry): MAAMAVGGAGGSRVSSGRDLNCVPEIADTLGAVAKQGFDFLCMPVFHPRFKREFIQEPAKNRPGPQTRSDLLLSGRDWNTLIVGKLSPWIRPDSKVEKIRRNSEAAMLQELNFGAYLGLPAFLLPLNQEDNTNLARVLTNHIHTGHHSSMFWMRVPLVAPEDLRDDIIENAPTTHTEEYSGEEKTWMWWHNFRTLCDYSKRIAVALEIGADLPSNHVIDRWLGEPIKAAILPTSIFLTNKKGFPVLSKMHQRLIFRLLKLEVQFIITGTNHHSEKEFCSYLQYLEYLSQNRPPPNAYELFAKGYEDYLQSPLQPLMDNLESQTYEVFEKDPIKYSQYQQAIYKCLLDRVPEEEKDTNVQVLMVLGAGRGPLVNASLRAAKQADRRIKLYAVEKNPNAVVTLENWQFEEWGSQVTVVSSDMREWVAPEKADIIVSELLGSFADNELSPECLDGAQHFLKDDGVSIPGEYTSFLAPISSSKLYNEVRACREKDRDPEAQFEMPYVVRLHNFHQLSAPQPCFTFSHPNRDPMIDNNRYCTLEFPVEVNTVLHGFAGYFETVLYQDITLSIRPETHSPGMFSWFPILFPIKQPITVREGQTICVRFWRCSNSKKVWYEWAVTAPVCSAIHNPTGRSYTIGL
T1 sequence (Q9BQA1 whole entry partner): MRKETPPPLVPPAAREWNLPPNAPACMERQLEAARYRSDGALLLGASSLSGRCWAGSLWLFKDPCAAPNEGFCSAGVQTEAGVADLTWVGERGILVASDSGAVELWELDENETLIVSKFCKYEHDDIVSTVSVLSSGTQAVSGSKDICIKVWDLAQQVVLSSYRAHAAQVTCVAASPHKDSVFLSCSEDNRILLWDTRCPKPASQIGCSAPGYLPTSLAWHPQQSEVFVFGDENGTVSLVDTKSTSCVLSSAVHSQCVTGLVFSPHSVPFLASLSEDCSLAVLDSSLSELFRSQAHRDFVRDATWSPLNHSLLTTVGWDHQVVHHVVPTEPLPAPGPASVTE

Turning to `C[C@@H]1CC[C@@H](c2ccc(F)cc2)N(C(=O)C(=O)Nc2cnc(N)c(C(F)F)c2)C1` (racemic) [Compound 867, N-[6-amino-5-(difluoromethyl)-3-pyridyl]-2-[(2R,5S)-2-(4-fluorophenyl)-5-methyl-1-piperidyl]-2-oxo-acetamide], the IC50 on PRMT5 [1] was 50 to 500 nM; on PRMT5 [2] (read-out: No Cofactor/rel IC50) it was 50 to 500 nM; on PRMT5 [3], 50 to 500 nM; in experiment [4] it was > 1000 nM; in experiment [5] (setting [7]), 100 to 1000 nM; in experiment [6] (setting [9]), 1000 to 10000 nM. For the same molecule, in experiment [5] (setting [8]), the MTAP intact/deleted ratio entry is given as “A (an IC50 ratio greater than or equal to 10 fold)”.
For the molecule `CNC(=O)c1ccc([C@@H]2CC[C@@H](C)CN2C(=O)C(=O)Nc2cnc(OC)c(C(N)=O)c2)s1` (single isomer, unassigned) [Compound 843], the IC50 on PRMT5 [1] was > 500 nM; at PRMT5 [2] (read-out: No Cofactor/rel IC50), > 500 nM; at PRMT5 [3], > 500 nM; in experiment [4], > 1000 nM; in experiment [5] (setting [7]) it was > 1000 nM; in experiment [6] (setting [9]), > 10000 nM. Further, in experiment [5] (setting [8]), the MTAP intact/deleted ratio entry is on record as “B (an IC50 ratio greater than or equal to 3 fold but lower than 10 fold)”.
On to `Cc1nc2cc([C@@H]3CC[C@H](C)CN3C(=O)C(=O)Nc3cnc(N)c(C)c3)ccc2o1` (single isomer, unassigned) [Compound 1170], for which the IC50 on PRMT5 [1] is 50 to 500 nM; on PRMT5 [2] (read-out: No Cofactor/rel IC50), < 50 nM; on PRMT5 [3], < 50 nM; in experiment [4], 100 to 1000 nM; in experiment [5] (setting [7]) it was < 100 nM; in experiment [6] (setting [11]), < 1000 nM. The MTAP intact/deleted ratio entry in experiment [5] (setting [10]) was “A (an IC50 ratio greater than or equal to 10 fold)”.
With `Cc1cc(NC(=O)C(=O)N2C[C@@H](C)CC[C@@H]2c2ccc(C(N)=O)s2)cnc1N` (single isomer, unassigned) [Compound 733], the IC50 was 50 to 500 nM on PRMT5 [1]; < 50 nM at PRMT5 [2] (read-out: No Cofactor/rel IC50); < 50 nM on PRMT5 [3]; 100 to 1000 nM in experiment [4]; < 100 nM in experiment [5] (setting [7]); < 1000 nM in experiment [6] (setting [9]). In addition, in experiment [5] (setting [8]), the MTAP intact/deleted ratio entry was “A (an IC50 ratio greater than or equal to 10 fold)”.
As to `C[C@@H]1CC[C@@H](c2ccc(F)cc2)N(C(=O)C(=O)Nc2cnc(N)c(C(F)(F)F)c2)C1` (racemic) [Compound 872, N-[6-Amino-5-(trifluoromethyl)-3-pyridyl]-2-[(2S,5R)-2-(4-fluorophenyl)-5-methyl-1-piperidyl]-2-oxo-acetamide], the IC50 was > 500 nM at PRMT5 [1]; 50 to 500 nM at PRMT5 [2] (read-out: No Cofactor/rel IC50); 50 to 500 nM at PRMT5 [3]; > 1000 nM in experiment [4]; 100 to 1000 nM in experiment [5] (setting [7]); 1000 to 10000 nM in experiment [6] (setting [9]). Moreover, the MTAP intact/deleted ratio result in experiment [5] (setting [8]) is “A (an IC50 ratio greater than or equal to 10 fold)”.
Regarding `Cc1cc(NC(=O)C(=O)N2C[C@H](C)CC[C@H]2c2cccs2)cnc1N` (single isomer, unassigned) [Compound 115], the IC50 on PRMT5 [1] was 50 to 500 nM; on PRMT5 [2] (setting [12]), < 50 nM; at PRMT5 [3], < 50 nM; in experiment [4], 100 to 1000 nM; in experiment [5] (setting [13]), < 100 nM; in experiment [6] (setting [11]), < 1000 nM. Besides, in experiment [5] (setting [8]), the “MTAP intact/deleted ratio” value was “A (an IC50 ratio greater than or equal to 10 fold)”.
For `Cc1ncc(NC(=O)C(=O)N2C[C@H](C)CC[C@H]2c2ccc3c(c2)CCC(=O)N3)cc1C(F)F` (racemic) [Compound 803, rac-N-[5-(Difluoromethyl)-6-methyl-3-pyridyl]-2-[(2S,5R)-5-methyl-2-(2-oxo-3,4-dihydro-1H-quinolin-6-yl)-1-piperidyl]-2-oxo-acetamide], the IC50 at PRMT5 [1] was 50 to 500 nM; at PRMT5 [2] (read-out: No Cofactor/rel IC50) it was 50 to 500 nM; at PRMT5 [3], < 50 nM; in experiment [4], > 1000 nM; in experiment [5] (setting [7]), < 100 nM; in experiment [6] (setting [9]) it was < 1000 nM. Also, the MTAP intact/deleted ratio entry in experiment [5] (setting [8]) is listed as “A (an IC50 ratio greater than or equal to 10 fold)”.
Take `CCc1cc(NC(=O)C(=O)N2C[C@@H](C)CC[C@@H]2c2ccc3sc(-c4ccncc4)nc3c2)cnc1N` [Compound 1194, N-(6-amino-5-ethylpyridin-3-yl)-2-((2R,5S)-5-methyl-2-(2-(pyridin-4-yl)benzo[d]thiazol-5-yl)piperidin-1-yl)-2-oxoacetamide]: the IC50 at PRMT5 [1] is 50 to 500 nM; at PRMT5 [2] (read-out: No Cofactor/rel IC50) it was < 50 nM; on PRMT5 [3], < 50 nM; in experiment [4], 100 to 1000 nM; in experiment [5] (setting [7]), < 100 nM; in experiment [6] (setting [11]), < 1000 nM. In addition, the MTAP intact/deleted ratio entry in experiment [5] (setting [10]) is on record as “A (an IC50 ratio greater than or equal to 10 fold)”.
As for `Cc1cncc(NC(=O)C(=O)N2C[C@@H](C)CC[C@@H]2c2cccs2)c1` (racemic) [Compound 60, rac-2-((2R,5S)-5-methyl-2-(thiophen-2-yl)piperidin-1-yl)-N-(5-methylpyridin-3-yl)-2-oxoacetamide], the IC50 on PRMT5 [1] is > 500 nM; on PRMT5 [2] (setting [12]), > 500 nM; at PRMT5 [3], 50 to 500 nM; in experiment [4], > 1000 nM; in experiment [5] (setting [13]) it was > 1000 nM; in experiment [6] (setting [11]), > 10000 nM. In addition, the “MTAP intact/deleted ratio” value in experiment [5] (setting [8]) is listed as “C (an IC50 ratio of less than 3 fold)”.
As for `CCc1cc(NC(=O)C(=O)N2C[C@@H](C)CC[C@@H]2c2ccc(N3CCC(CN(C)CC)CC3)cc2)cnc1N` [Compound 1232, N-(6-Amino-5-ethylpyridin-3-yl)-2-[(2R,5S)-2-[4-(4-{[ethyl(methyl)amino]methyl}piperidin-1-yl)phenyl]-5-methylpiperidin-1-yl]-2-oxoacetamide], the IC50 was 50 to 500 nM on PRMT5 [1]; < 50 nM at PRMT5 [2] (read-out: No Cofactor/rel IC50); < 50 nM at PRMT5 [3]; 100 to 1000 nM in experiment [4]; < 100 nM in experiment [5] (setting [7]); < 1000 nM in experiment [6] (setting [11]). For the same molecule, in experiment [5] (setting [10]), the MTAP intact/deleted ratio result is on record as “A (an IC50 ratio greater than or equal to 10 fold)”.
With `CCc1cc(NC(=O)C(=O)N2C[C@@H](C)CC[C@@H]2c2ccc3sc([C@H]4CN(C)CCO4)nc3c2)cnc1N` [Compound 1202, N-(6-amino-5-ethyl-3-pyridyl)-2-oxo-2-[(2R,5S)-5-methyl-2-[2-[(2R)-4-methylmorpholin-2-yl]-1,3-benzothiazol-5-yl]-1-piperidyl]acetamide], the IC50 was 50 to 500 nM on PRMT5 [1]; < 50 nM on PRMT5 [2] (read-out: No Cofactor/rel IC50); < 50 nM at PRMT5 [3]; < 100 nM in experiment [4]; < 100 nM in experiment [5] (setting [7]); < 1000 nM in experiment [6] (setting [11]). The MTAP intact/deleted ratio entry in experiment [5] (setting [10]) is given as “A (an IC50 ratio greater than or equal to 10 fold)”.
Consider `COc1ncc(NC(=O)C(=O)N2C[C@H](C)CC[C@H]2c2ccc3[nH]c(C)nc3c2)cc1C(N)=O` (single isomer, unassigned) [Compound 917], for which the IC50 on PRMT5 [1] is 50 to 500 nM; at PRMT5 [2] (read-out: No Cofactor/rel IC50), < 50 nM; on PRMT5 [3], < 50 nM; in experiment [4], > 1000 nM; in experiment [5] (setting [13]), < 100 nM; in experiment [6] (setting [11]), 1000 to 10000 nM. Also, in experiment [5] (setting [8]), the MTAP intact/deleted ratio entry was “A (an IC50 ratio greater than or equal to 10 fold)”.
For the molecule `Cc1ncc([C@@H]2CC[C@@H](C)CN2C(=O)C(=O)Nc2cnc(N)c(C)c2)cn1` (racemic) [Compound 107, rac-N-(6-amino-5-methylpyridin-3-yl)-2-((2R,5S)-5-methyl-2-(2-methylpyrimidin-5-yl)piperidin-1-yl)-2-oxoacetamide], the IC50 on PRMT5 [1] is 50 to 500 nM; at PRMT5 [2] (setting [12]), > 500 nM; on PRMT5 [3], 50 to 500 nM; in experiment [4], > 1000 nM; in experiment [5] (setting [13]), > 1000 nM; in experiment [6] (setting [11]) it was > 10000 nM. Also, the “MTAP intact/deleted ratio” value in experiment [5] (setting [8]) is given as “C (an IC50 ratio of less than 3 fold)”.
Take `CNc1ccc([C@@H]2CC[C@@H](C)CN2C(=O)C(=O)Nc2cncc(C(N)=O)c2)nc1` (racemic) [Compound 907, 5-[[2-[(2R,5S)-5-methyl-2-[5-(methylamino)-2-pyridyl]-1-piperidyl]-2-oxo-acetyl]amino]pyridine-3-carboxamide]: the IC50 on PRMT5 [1] was 50 to 500 nM; at PRMT5 [2] (read-out: No Cofactor/rel IC50), 50 to 500 nM; at PRMT5 [3], 50 to 500 nM; in experiment [4], > 1000 nM; in experiment [5] (setting [13]) it was < 100 nM; in experiment [6] (setting [11]) it was 1000 to 10000 nM. The MTAP intact/deleted ratio result in experiment [5] (setting [8]) is on record as “A (an IC50 ratio greater than or equal to 10 fold)”.
For `C[C@@H]1CC[C@@H](c2ccccc2F)N(C(=O)C(=O)Nc2cncc(C(N)=O)c2)C1` (racemic) [Compound 595, 5-[[2-[(2R,5S)-2-(2-Fluorophenyl)-5-methyl-1-piperidyl]-2-oxo-acetyl]amino]pyridine-3-carboxamide], the IC50 is 50 to 500 nM at PRMT5 [1]; 50 to 500 nM on PRMT5 [2] (read-out: No Cofactor/rel IC50); 50 to 500 nM on PRMT5 [3]; > 1000 nM in experiment [4]; < 100 nM in experiment [5] (setting [13]); 1000 to 10000 nM in experiment [6] (HAP1, viability IC50, MTAP-deleted cell line). Besides, in experiment [5] (setting [8]), the MTAP intact/deleted ratio entry is “A (an IC50 ratio greater than or equal to 10 fold)”.
